Among the test systems are MOLT-4 leukemia; MDA-MB-231 breast; NCI-H460 lung; SK-OV-3 ovarian; SF-295 CNS; T-47D breast; TK-10 renal; SW-620 colon; HCC-2998 colon; HT29 colon; OVCAR-5 ovarian; MDA-MB-435; SF-268 CNS; UO-31 renal; M14 melanoma; LOX IMVI melanoma; SNB-19 CNS; NCI-H522 lung; HOP-92 NSCLC.
Holding throughout (experiment): growth of human tumour cells (NCI), 48 h

Data on eight compounds can be found in PubChem BioAssay (NCI).

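Grown in 96-well plates, cells were treated for 48 hours with each compound at five concentrations. Insufficient inhibition: endpoint recorded as highest concentration tested. TGI marks complete inhibition of growth.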

`Nc1ncnc2c1ncn2C1C=CC(CP(=O)(O)O)C1` (stereo not drawn): the TGI in the experiment on MOLT-4 leukemia, with MDA-MB-231 breast, in the experiment on NCI-H460 lung, in the experiment with SK-OV-3 ovarian, with SF-295 CNS and in the experiment with T-47D breast was above 100 µM in each case. Also, the TGI in the experiment with TK-10 renal, with SW-620 colon, in the experiment with HCC-2998 colon, in the experiment with HT29 colon, in the experiment on OVCAR-5 ovarian and in the experiment with MDA-MB-435 was above 100 µM throughout. The TGI in the experiment on SF-268 CNS, in the experiment with UO-31 renal, with M14 melanoma, in the experiment on LOX IMVI melanoma and in the experiment on SNB-19 CNS was above 100 µM each time.

Consider `COC(=O)C(=O)c1c2ccccc2n2ccc3c4ccccc4[nH]c3c12`, for which the TGI in the experiment with MOLT-4 leukemia, with MDA-MB-231 breast, in the experiment on NCI-H460 lung, with SK-OV-3 ovarian, with NCI-H522 lung and with SF-295 CNS was above 10 µM in each case. The TGI with T-47D breast, in the experiment on TK-10 renal, in the experiment with HOP-92 NSCLC, in the experiment with SW-620 colon, in the experiment on HCC-2998 colon and in the experiment with HT29 colon was above 10 µM in each case. For the same compound, the TGI in the experiment on OVCAR-5 ovarian, with MDA-MB-435, in the experiment on SF-268 CNS, in the experiment with UO-31 renal, with M14 melanoma and with LOX IMVI melanoma was above 10 µM throughout. This compound registered a TGI in the experiment with SNB-19 CNS above 10 µM.

Take `CC(=O)Nc1ccc(C(=O)NN2C(=O)C(Cl)C2c2cc(Br)ccc2O)cc1` (stereo not drawn): the TGI with MOLT-4 leukemia is above 100 µM; in the experiment with MDA-MB-231 breast, above 100 µM; in the experiment on NCI-H460 lung it was above 48.5 µM; in the experiment with SK-OV-3 ovarian, above 100 µM; in the experiment on NCI-H522 lung, above 100 µM; in the experiment on SF-295 CNS, above 100 µM. For the same compound, the TGI in the experiment on T-47D breast, in the experiment on TK-10 renal, in the experiment on HOP-92 NSCLC, in the experiment with SW-620 colon, with HCC-2998 colon and in the experiment with HT29 colon was above 100 µM throughout. The TGI in the experiment with OVCAR-5 ovarian is above 100 µM; in the experiment with MDA-MB-435, above 100 µM; in the experiment on SF-268 CNS, above 100 µM; with UO-31 renal, 32.3 µM; in the experiment on M14 melanoma it was 45.5 µM; with SNB-19 CNS, above 100 µM.

In the case of `CC(=O)OCC1OC(n2c(C)c(N=Nc3ccccc3)c(C)c(C#N)c2=S)C(OC(C)=O)C(OC(C)=O)C1OC(C)=O` (stereo not drawn), the TGI in the experiment on MOLT-4 leukemia is above 100 µM; with MDA-MB-231 breast, 62.3 µM; in the experiment on NCI-H460 lung, above 100 µM; in the experiment on SK-OV-3 ovarian, above 100 µM; with SF-295 CNS, 44.1 µM; with T-47D breast it was above 100 µM. In addition, the TGI with TK-10 renal is 81.8 µM; in the experiment on HOP-92 NSCLC it was 28 µM; with SW-620 colon, above 100 µM; in the experiment with HCC-2998 colon, above 100 µM; with HT29 colon it was above 100 µM; in the experiment with OVCAR-5 ovarian, above 100 µM. Moreover, the TGI in the experiment on MDA-MB-435, with SF-268 CNS, with UO-31 renal, in the experiment with M14 melanoma, in the experiment with LOX IMVI melanoma and in the experiment on SNB-19 CNS was above 100 µM throughout.

On to `CC1(C)C=C(/C=N/Nc2ccc([N+](=O)[O-])cc2)C(C#N)=C(O)C1(C#N)C#N`, for which the TGI in the experiment with MOLT-4 leukemia, in the experiment on MDA-MB-231 breast, in the experiment with NCI-H460 lung, in the experiment with SK-OV-3 ovarian, with NCI-H522 lung and with SF-295 CNS was above 100 µM throughout. For the same compound, the TGI in the experiment with T-47D breast, with TK-10 renal, with HOP-92 NSCLC, with SW-620 colon, in the experiment with HCC-2998 colon and in the experiment on HT29 colon was above 100 µM in each case. Further, the TGI in the experiment with OVCAR-5 ovarian, with MDA-MB-435, with SF-268 CNS, in the experiment on UO-31 renal, in the experiment on M14 melanoma and in the experiment on LOX IMVI melanoma was above 100 µM in each case. Also, the TGI in the experiment on SNB-19 CNS was above 100 µM.

`CN(/N=C/c1cccs1)c1ccc(Cl)cc1[N+](=O)[O-]`: the TGI is above 100 µM with MOLT-4 leukemia; above 100 µM in the experiment with MDA-MB-231 breast; above 100 µM with NCI-H460 lung; above 100 µM in the experiment on SK-OV-3 ovarian; 69.5 µM in the experiment with NCI-H522 lung; above 100 µM with SF-295 CNS. The TGI in the experiment with T-47D breast, with TK-10 renal, in the experiment with SW-620 colon, in the experiment with HCC-2998 colon, with HT29 colon and with MDA-MB-435 was above 100 µM each time. For the same compound, the TGI with SF-268 CNS, in the experiment with UO-31 renal, in the experiment on M14 melanoma and in the experiment on SNB-19 CNS was above 100 µM in each case.

For the compound `NNC(=O)c1ccccc1Nc1ccccc1C(=O)NN`, the TGI in the experiment with MOLT-4 leukemia, in the experiment with MDA-MB-231 breast, in the experiment on NCI-H460 lung, in the experiment on SK-OV-3 ovarian, in the experiment on NCI-H522 lung and in the experiment on SF-295 CNS was above 100 µM in each case. Moreover, the TGI with T-47D breast, with TK-10 renal, in the experiment with SW-620 colon, in the experiment on HCC-2998 colon, in the experiment with HT29 colon and with OVCAR-5 ovarian was above 100 µM throughout. For the same compound, the TGI in the experiment with MDA-MB-435, with SF-268 CNS, with UO-31 renal, in the experiment on M14 melanoma, with LOX IMVI melanoma and with SNB-19 CNS was above 100 µM throughout.

Regarding `CCOC(=O)C(NC(=O)c1ccccc1)(Nc1ccc(S(=O)(=O)Nc2nc(C)cc(C)n2)cc1)C(F)(F)F` (stereo not drawn), the TGI with MOLT-4 leukemia, with MDA-MB-231 breast, with NCI-H460 lung, with SK-OV-3 ovarian, in the experiment with SF-295 CNS and with T-47D breast was above 100 µM in each case. Further, the TGI with TK-10 renal, with HOP-92 NSCLC, with SW-620 colon, in the experiment on HCC-2998 colon, with HT29 colon and with OVCAR-5 ovarian was above 100 µM throughout. Besides, the TGI in the experiment with MDA-MB-435, in the experiment on SF-268 CNS, in the experiment with UO-31 renal, in the experiment on M14 melanoma, with LOX IMVI melanoma and in the experiment on SNB-19 CNS was above 100 µM each time.
